Assay [1] concerns isogenic E. coli strains expressing PDC R2-loop deletion variants (PDC-88 to PDC-92). Kind of assay: MIC changes across the five isogenic E. coli R2-loop deletion strains. Type of assay: cell-based, Escherichia coli. Conditions: R2-loop deletion variant strains; for restoration of FEP activity / susceptibility by inhibitor: inhibitor at constant 4 µg/mL. On the procedure:
Modal broth microdilution MICs (or median broth microdilution MICs where appropriate) were determined in accordance with Clinical and Laboratory Standards Institute (CLSI) M07 guidelines ([43]). Isogenic E. coli DH10B cells expressing the abovementioned plasmid-encoded PDC constructs were used. […] CLSI quality control strains Escherichia coli NCTC 13353, E. coli ATCC 35218, and Klebsiella pneumoniae ATCC 700603 were used during testing ([24]).

For assay [2], the target named is T1, PDC-3 (Pseudomonas aeruginosa, UniProt P24735, T105A).
T1 construct: The PDC-3 expression construct was created in a similar manner but starting with a previously described pBC SK(−) vector; made in house; host or cells: E. coli BL21-CodonPlus (DE3)-RP, pET24a(+)
Kind of assay: Thermal denaturation by circular dichroism, PDC-3. Type of assay: binding. The procedure:
Competitive enzyme inhibitors can increase enzyme thermal stability as a result of binding to the active site.
Circular dichroism (CD) melting curve experiments were conducted using a J-815 spectropolarimeter (Jasco) and a Peltier effect temperature controller. Suprasil quartz cuvettes with a 0.1 cm path length (Hellma Analytics) were used in all experiments. […] Two-state behavior was observed, as indicated by identical curves at each wavelength. Equilibrium constants were calculated, and the melting temperature, Tm, was calculated from equilibrium denaturation data as previously described ([28]).

In assay [3] the target is T2, PDC-88 (Pseudomonas aeruginosa, UniProt P24735, DEL316-317/G27D/G391A/T105A/V205L/V356I).
T2 construct: NdeI 5′-[…]-3ʹ and BamHI 5ʹ-[…]-3ʹ; His tag removed) (N); made in house; host or cells: E. coli BL21-CodonPlus (DE3)-RP, pET24a(+)
In kind it is binding. The procedure:
Circular dichroism (CD) melting curve experiments were conducted using a J-815 spectropolarimeter (Jasco) and a Peltier effect temperature controller. Suprasil quartz cuvettes with a 0.1 cm path length (Hellma Analytics) were used in all experiments. […] Equilibrium constants were calculated, and the melting temperature, Tm, was calculated from equilibrium denaturation data as previously described ([28]).

For `NC(=O)[C@@H]1CC[C@@H]2CN1C(=O)N2OS(=O)(=O)O` [AVI, avibactam], the “restoration of FEP activity / susceptibility by inhibitor” value in assay [1] was “restoring FEP activity in all cases”.

Consider `C[C@]1(Cn2ccnn2)[C@H](C(=O)O)N2C(=O)C[C@H]2S1(=O)=O` [TZB, tazobactam], for which the “increase of Tm upon addition of inhibitor” value in assay [2] (PDC-3) and in assay [3] (PDC-88) was 1 °C throughout. Also, the Tm was 53 °C in assay [2] (PDC-3 with inhibitor, circular dichroism, PDC-3 alone 52°C) and 54 °C in assay [3] (PDC-88 with inhibitor, circular dichroism, PDC-88 alone 53°C). In assay [1] (inhibitor at constant 4 µg/mL with FEP), the “decrease of FEP MIC of variants by inhibitor” value is recorded as “two- to fourfold”. In addition, the “restoration of FEP activity / susceptibility by inhibitor” value in assay [1] is “failed to restore susceptibility for any of the variants”.

The record behind these values is PMC12217481, “Structure and mechanism of taniborbactam inhibition of the cefepime-hydrolyzing, partial R2-loop deletion Pseudomonas-derived cephalosporinase variant PDC-88” (Antimicrobial Agents and Chemotherapy, 2025).
